{"source": "patent US20240245628A1", "about": "“COMPOSITIONS AND METHODS FOR HEALTH COMPRISING CO-ENZYME Q10” (Bausch + Lomb Ireland Limited, priority 2023, published 2024)", "origin": "cited, not measured here", "settings": "at levels as high as 800.0 mg"}
{"substance": "vitamin E", "values": [{"measurement": "adverse effects of vitamin E", "value": "No adverse effects"}]}
